From patent US20250339531A1, “DUX4 POLYPEPTIDES AND NUCLEIC ACIDS FOR TREATING INFLAMMATORY AND AUTOIMMUNE CONDITIONS” (Fred Hutchinson Cancer Center, priority 2021, published 2025)
“Also recorded” adds a separate entry of the source.

Tests used:
Format in all cases: cell-based, human
[1] = tested on: IFIH1, DDX58, cGAS and Type-1 IFN pathways; assay: ISG induction by IFNβ, poly(I:C), RIG-I ligand or cGAMP, RT-qPCR in MB135-iDUX4 cells; details: MB135iDUX4 cells ± doxycycline
Experimental: All myoblast experiments were conducted in immortalized MB135 or MB200 myoblast cell lines (isolated from a control or FSHD2 subject, respectively cultured in Ham's F-10 Nutrient Mix (Gibco) supplemented with 15% fetal bovine serum (Hyclone), 100 U/100 μg/ml penicillin/streptomycin (Gibco), 1 μM dexamethasone (Sigma), and 10 ng/ml recombinant human basic fibroblast growth factor (PeproTech). To differentiate the myoblasts to myotubes, media was changed to DMEM supplemented with 10 μg/ml insulin (Sigma) and 10 μg/ml transferrin (Sigma). Cell lines containing doxycycline-inducible transgenes were additionally cultured with 2 μg/mL puromycin (Sigma). Transgenes were induced with 1 μg/mL of doxycycline (Sigma) for 4 hours prior to other treatments for a total of 20 hrs. The Kitra-SRS cells (RRID:CVCL_YI69) were provided by Dr. H. Otani and Osaka University (Nakai et al., 2019) and were cultured in DMEM supplemented with 10% fetal bovine serum (Hyclone) and 100 U/100 μg/ml penicillin/streptomycin (Gibco). Biological replicates consisted of independent but parallel experiments, such as simultaneously stimulating three cell culture plates with IFNγ. Technical replicates consisted of repeat measurements of the same biological sample, such as loading the same biological sample in triplicate for analysis by RT-qPCR. […]

[2] = tested on: de novo protein synthesis; assay: HPG Click-iT labeling of nascent proteins; details: MB135-iDUX4ca myoblasts, 20-96 hours after a pulse
Experimental: Cells were incubated for 30 minutes in DMEM or RPMI media depleted for methionine and cysteine (Gibco), followed by a 1-hour incubation in methionine-depleted media supplemented with 200 μM HPG (Sigma). Cells were fixed with 4% paraformaldehyde (Electron Microscopy Sciences) diluted in PBS for 10 minutes at room temperature and stained with Click-iT HPG Alexa Fluor 488 Protein Synthesis Assay Kit (Invitrogen) according to manufacturer's protocol.

[3] = tested on: MHC class I proteins (HLA-A/B/C); assay: Immunoblot of IFNG-induced MHC class I protein, continuous or pulsed protocol, MB135 myoblasts; details: MB135 cells; for suppression of IFNG-induced MHC class I protein, pulsed protocol: 4 h doxycycline pulse, IFNG added later for 16 h; for suppression of IFNG-induced MHC class I protein, continuous protocol: doxycycline 20 h, IFNG last 16 h
Experimental: In the “continuous” protocol (similar to the experiments shown in the prior FIGS. 1, 2, 4, 5, and 6), doxycycline is added to induce DUX4 expression at time 0 and four hours later IFNG is added for an additional 16 hours, resulting in 20 hours of continuous DUX4 induction with the last 16 hrs exposed to IFNG.
In the “pulsed” protocol, doxycycline is added at time 0 to induce DUX4 expression, but after four hours the media is changed to remove the doxycycline, resulting in a pulse of DUX4 mRNA and protein sufficient to induce DUX4 target gene expression (see Resnick et al., Cell Rep. 2019 Nov. 12; 29(7):1812-1820.e5). IFNG is added at 28 hours for a period of 16 hours prior to harvesting the cells. […] This difference is not likely to be due to different amounts of the DUX4 and mutant DUX4 proteins because at the time of harvest both DUX4 and the F67A mutant DUX4 protein levels have declined to similarly low amounts relative to the continuous protocol, but could be due to the activation of DUX4 target genes by the full-length DUX4 since the H3.X/Y proteins show persistent expression in the pulsed protocol.
Protein samples were harvested in RIPA buffer [150 mM NaCl, 1% NP-40, 0.5% Na-deocycholate, 1% SDS, 25 mM Tris-HCl pH7.4] supplemented with protease and phosphatase inhibitor tablets (Pierce), followed by sonication in Diagenode Bioruptor. Lysate was cleared by centrifugation at 16000×g and quantified using a Pierce BCA assay (Thermo Fisher Scientific). Samples were run on NuPAGE precast polyacrylamide gels (Invitrogen) and transferred to PVDF membrane. Membranes were blocked in PBS containing 0.1% Tween-20 and 5% non-fat dry milk before overnight incubation at 4° C. with primary antibodies (see resource table for a list of antibodies used in this study). Membranes were incubated with horseradish peroxidase-conjugated secondary antibodies for 1 hour at room temperature and SuperSignal chemiluminescent substrate (Thermo Scientific) was used for detection on film with a Mini-medical 90 processor. Membranes were stripped with Restore Western Blot Stripping Buffer (Pierce).

In the case of “DUX4: human DUX4 protein SEQ ID NO:3 expressed from doxycycline inducible codon altered transgene SEQ ID NO:2”, the “suppression of ISG induction by innate immune stimuli (poly(I:C), short dsRNA/RIG-I ligand, cGAMP, IFNβ)” value [1] is reported as “blunted the induction of these genes by each of the stimulated pathways; also recorded: substantially blunted the ISG induction to all treatments; also recorded: pathways that rely on IRFs and STATs are both blocked; also recorded: suppressed the induction of a subset of the panel of ISG genes induced by each ligand; also recorded: CXCL9 was induced by IFNβ, poly(I:C), and the RIG-I ligand but not suppressed by DUX4”, the “nascent protein synthesis by HPG labeling” value [2] is reported as “dramatic reduction in HPG-labeled peptides; also recorded: peak suppression occurred forty-four hours after a pulse of DUX4; also recorded: HPG signal largely recovered by ninety-two hours” and the “suppression of IFNG-induced MHC class I protein, pulsed protocol” value (shortened to “suppression … pulsed protocol”) [3] is reported as “more profound suppression of the MHC class I proteins; also recorded: even more effectively in the pulsed protocol; also recorded: elicited the same degree of suppression when assayed forty-four hours later; also recorded: suppressed HLA-A/B/C proteins even a day later”. For the same substance, the “suppression … pulsed protocol” value ([3]; listed as full-length DUX4) was “suppresses MHC class I expression as well, or slightly better, in the pulsed protocol than in the continuous protocol”, the “suppression … pulsed protocol” value ([3]; listed as wildtype DUX4) was “suppressed MHC-I and immunoproteasome subunits” and the “suppression of IFNG-induced MHC class I protein, continuous protocol” value (“suppression … continuous protocol” for short) [3] was “modest suppression of MHC class I protein; also recorded: suppresses MHC class I proteins; also recorded: IFNG-induction of MHC-I and the immunoproteasome was suppressed; also recorded: MHC class I induction, but not HLA-E is blocked”. For the same substance, the “suppression … continuous protocol” value ([3]; listed as full-length DUX4) was “suppress the IFNG induction of MHC class I expression” and the “suppression … continuous protocol” value ([3]; listed as wildtype DUX4) was “suppressed IFNG-induced MHC-I and the immunoproteasome expression”.
